In patent US9572787B2, “Inhibition of renal fibrosis” (Rhode Island Hospital, priority 2011, dated 2017):

Key:
NRK-49F cells [1] = assay: TGF-β1-induced activation of renal interstitial fibroblasts (immunoblot); type: cell-based, rat; conditions: 2 ng/ml TGF-β1, 24 h
Description: Cell Culture and Treatments. NRK-49F cells were cultured in Dulbecco's modified eagle's medium (DMEM) (Sigma-Aldrich, St. Louis, Mo.) containing 5% fetal bovine serum (FBS), 0.5% penicillin and streptomycin in an atmosphere of 5% CO2 and 95% air at 37° C. […] For TGF-β1 treatment, NRK-49F were starved for 24 h by incubation with 0.5% FBS containing DMEM and then exposed to TGF-β1 (0.5-2 ng/ml) for 24 h.
Immunoblot Analysis. Immunoblot analysis of NRK-49F cells and tissue samples were conducted as described previously. The densitometry analysis of immunoblot results was conducted by using NIH Image software (National Institutes of Health, Bethesda, Md.).

NRK-49F cells [2] = assay: Cleaved PARP and cleaved caspase-3 (apoptosis hallmarks), immunoblot; type: cell-based, rat; conditions: 100 μM suramin, 36 h
Description: Cell Culture and Treatments. NRK-49F cells were cultured in Dulbecco's modified eagle's medium (DMEM) (Sigma-Aldrich, St. Louis, Mo.) containing 5% fetal bovine serum (FBS), 0.5% penicillin and streptomycin in an atmosphere of 5% CO2 and 95% air at 37° C. […] Immunoblot Analysis. Immunoblot analysis of NRK-49F cells and tissue samples were conducted as described previously. The densitometry analysis of immunoblot results was conducted by using NIH Image software (National Institutes of Health, Bethesda, Md.).

obstructed kidney (UUO) = assay: UUO model, delayed administration of suramin at day 3 of obstruction; type: in vivo, mouse
Description: Animals and the UUO Model. The UUO model used was described above. The abdominal cavity was exposed via a midline incision and the left ureter was isolated and ligated. Sham-operated animal received the same surgical procedures but without ureter ligation. To establish the time course of renal fibrogenesis in this model, four groups of mice (n=5) were killed at days 1, 3, 7, and 14, respectively, after left ureter ligation. […] Control mice were injected with the equal volume of vehicle (0.9% saline). At the end of the experiments, mice were killed and the kidneys were removed. One part of the kidneys was fixed in 10% phosphate-buffered formalin for histological studies. Another part was snap-frozen in liquid nitrogen and stored at −80° C. for protein extractions.

[3] = 20 mg/kg at day 3, kidney at day 10

With Cc1ccc(C(=O)Nc2ccc(S(=O)(=O)O)c3cc(S(=O)(=O)O)cc(S(=O)(=O)O)c23)cc1NC(=O)c1cccc(NC(=O)Nc2cccc(C(=O)Nc3cc(C(=O)Nc4ccc(S(=O)(=O)O)c5cc(S(=O)(=O)O)cc(S(=O)(=O)O)c45)ccc3C)c2)c1 [Suramin] the “TGF-β1 induced phosphorylation of Smad2” value (NRK-49F cells [1]) was “abolished”, the “TGF-β1 induced phosphorylation of Smad3” value (NRK-49F cells [1]) was “abolished” and the TGF-β1-induced fibronectin expression (NRK-49F cells [1]; in the presence of suramin) was “abolished”. For the same compound, the “TGF-β1-induced α-SMA expression” value (NRK-49F cells [1]; in the presence of suramin) was “suppressed to the basal level”, the “cleavage of caspase-3” value (NRK-49F cells [2]) was “did not induce cleavage” and the “cleavage of poly (ADP-ribose) polymerase (PARP)” value (NRK-49F cells [2]) was “did not induce cleavage”. The EGFR phosphorylation (obstructed kidney (UUO); [3]) was “significant reduction”, the PDGFR phosphorylation (obstructed kidney (UUO); [3]) was “significant reduction” and the Smad3 phosphorylation (obstructed kidney (UUO); [3]) was “largely blocked”. The “expression of total EGFR” value (obstructed kidney (UUO); [3]) was “not affected”, the “expression of total PDGFR” value (obstructed kidney (UUO); [3]) was “not affected” and the “phosphorylation of ERK1/2” value (obstructed kidney (UUO); [3]) was “not further increased”. The “phosphorylation of STAT3” value (obstructed kidney (UUO); [3]) was “not further increased”, the “total protein level of ERK1/2” value (obstructed kidney (UUO); [3]) was “did not alter” and the “total protein level of STAT3” value (obstructed kidney (UUO); [3]) was “did not alter”. The α-SMA expression (obstructed kidney (UUO); 20 mg/kg at day 3, both 7- and 14-day treatment groups) was “reduced” and the Masson trichrome-positive areas (obstructed kidney (UUO); 20 mg/kg i.p. single dose at day 3, kidney at day 10) was “reduced on day 10 to a level similar to that in the kidney at 3 days of obstruction”.
